Assay results: patent publication US20260374818A1, “CATIONIC PEPTIDES WITH BROAD SPECTRUM ACTIVITY” (priority 2023, published 2026)
In brackets after ≈: the same amount, converted by molar mass. Where a SMILES comes first, the peptide text is derived from it. [ ]: non-standard residue; d: D form.

Key:
[1] = tested on: Enterobacter cloacae 218R1; test: Biofilm inhibition (at least 80%), E. cloacae; type: cell-based; conditions: E. cloacae 218R1; n = 3; BM2 minimal media; 18-24 hours; crystal violet
[2] = tested on: S. aureus USA300 (MRSA) wound biofilms; test: Porcine dermal biofilm wound infection model, MRSA; type: in vivo, porcine; methicillin resistant Staphylococcus aureus; conditions: compared with ciprofloxacin, mupirocin
Source text: . Peptide (PEP1=DJK5; PEP3=AB103-D) solutions were used to hydrate Puracol® resorbable dressings made of collagen either alone or in the presence of antibiotic (ABX1=ciprofloxacin). Briefly, partial thickness wounds (10 mm×7 mm×1 mm deep) were created on the backs of the animals then infected with log-phase cultures of bacteria and allowed biofilms to form for 24-hrs. Dressings were applied to infected wounds of either MRSA S. aureus USA300 (FIG. 6A) or P. aeruginosa 27312 (FIG. 6B) as either a single treatment (day 1) or twice treated (Day 1 and 4) and all wounds were excised on day 7 for CFU renumeration. The amount of peptide applied in all treatments was 10 mg while 1 mg of ciprofloxacin was used in and treatment containing antibiotic. Mupirocin and silver sulfadiazine (SSD) were used as positive controls.
In vivo porcine dermal biofilm model: Peptide loaded dressings were evaluated using a porcine dermal biofilm infection model as described previously [Davis, S. C., et al. (2018). The wound-healing effects of a next-generation anti-biofilm silver Hydrofiber wound dressing on deep partial-thickness wounds using a porcine model. International Wound Journal, 15(5), 834-839]. Briefly, partial thickness wounds (10 mm×7 mm×1 mm deep) were created on the backs of the animals then infected with log-phase cultures of bacteria and allowed biofilms to form for 24-hrs. […]

[3] = tested on: human bronchiolar epithelial cells (HBEs); test: Cytotoxicity (LDH release), human bronchiolar epithelial cells
[4] = tested on: 3-day-old oral plaque biofilms; test: Plaque biofilms treated with oral rinse solutions for 14 days; type: cell-based; conditions: 0.12% CHX+10 μg/mL peptide, twice daily
Description: Briefly, after the formation of a 3-day-old biofilm, HA disks were rinsed in PBS for 1 minute and assigned to one of five treatment groups: (i) sterile water, (ii) Listerine Total Care Mouthwash (Johnson & Johnson Inc., Canada), (iii) GUM Paroex Mouthwash (Sunstar, USA), (iv) 0.12% CHX+10 μg/mL of peptide DJK-5, and (v) 0.12% CHX+10 μg/mL of peptide AB103-D. For each treatment, the disks were treated twice each day (i.e. at 8 am and […] for the first and second time, respectively). Treatment consisted of a droplet of 40 μl of each solution spread on the surface of the biofilm for 1 minute, followed by rinsing with PBS for 1 minute and then placing the disk back into the 24-well plates under anaerobic conditions at 37 °C. On the 0, 1st, 3rd, 7th, 10th, and 14th day, three disks from each group were collected for confocal microscopy analysis. Biofilms were stained with fluorescent dyes SYTO-9 and propidium iodide, which stain live cells green and dead cells red, respectively. The scale bar represents 200 μm. […]. […] The results indicated improved antibiofilm effects of AB103-D on 3-day-old oral plaque biofilms compared to treatment by various oral rinse solutions for 14 days.

[5] = tested on: P. aeruginosa PAO1 planktonic cells; test: Planktonic inhibition by AB103-D single substitution variants, P. aeruginosa; type: cell-based; conditions: Pseudomonas; read-out: IC50 of AB103-D alone, planktonic
Source text: (§1) A series of single amino acid substitution variants of the AB103-D peptide were generated on cellulose arrays using SPOT-synthesis technology [Hilpert, K., Winkler, D. F., & Hancock, R. E. W. (2007). Peptide arrays on cellulose support: SPOT synthesis, a time and cost efficient method for synthesis of large numbers of peptides in a parallel and addressable fashion. Nature Protocols, 2(6), 1333-1349; Frank, R. (2002). The SPOT-synthesis technique. Synthetic peptide arrays on membrane supports-principles and applications. J Immunol Methods, 267(1), 13-26] to test for enhanced Gram-negative activity against P. aeruginosa and determine which residues contribute to the antibiofilm effects of this peptide. 96 AB103-D variants were generated by replacing each residue in the parent peptide with one of D-Arg, D-Lys, D-Glu, Gly, D-Ala, D-Ile, D-Leu, D-Val and D-Trp. The biofilm inhibitory activity of all 96 AB103-D variants was subsequently assessed against MRSA USA300 LAC or P. aeruginosa PAO1 in a microtitre plate assay [Haney, E. F., Trimble, M. J., & Hancock, R. E. W. (2021). Microtiter plate assays to assess antibiofilm activity against bacteria. Nature Protocols, 16(5), 2615-2632]. […].

MRSA planktonic cells = test: Planktonic inhibition by AB103-D single substitution variants, MRSA; type: cell-based, methicillin resistant Staphylococcus aureus; conditions: read-out: IC50 of AB103-D alone, planktonic
Source text: as §1

Klebsiella pneumoniae = test: MIC (broth microdilution) of peptides, K. pneumoniae; type: cell-based; conditions: mode of three biological replicates
Description: Minimal inhibitory concentration (MIC) against planktonic bacteria: The MIC of the synthetic peptides was determined in Mueller-Hinton broth (MHB) using the broth microdilution method described previously [Wiegand, I., Hilpert, K., & Hancock, R. E. (2008). Agar and broth dilution methods to determine the minimal inhibitory concentration (MIC) of antimicrobial substances. Nature Protocols, 3(2), 163-175]. Briefly, 10 μl of a 10× concentrated peptide solution was placed in the bottom of a well in a 96-well polypropylene round bottom plate (Corning Inc.). A bacterial suspension of ~5×10^5 CFU/ml was prepared from an overnight culture and 90 μl of this was added to each well. […] Bacteria tested included P. aeruginosa PAO1, MRSA USA300 LAC, Staphylococcus haemolyticus, Staphylococcus epidermidis, Klebsiella pneumoniae and Streptococcus salivarius.
Finally, the AB103-D derivatives that were the least aggregation prone and which produced the lowest toxic effects in vivo were evaluated for their direct antibacterial activity towards several pathogens of clinical relevance using a standard minimum inhibitory concentration (MIC) assay [Wiegand, I., Hilpert, K., & Hancock, R. E. (2008). Agar and broth dilution methods to determine the minimal inhibitory concentration (MIC) of antimicrobial substances. Nature Protocols, 3(2), 163-175]. Specifically, peptides AB110-D, AB111-D, AB114-D and AB115-D were tested against P. aeruginosa PAO1, MRSA USA 300, Staphylococcus haemolyticus, Staphylococcus epidermidis, Klebsiella pneumoniae and Streptococcus salivarius and compared against the antibacterial activity of DJK-5 and AB103-D (Table 7). Overall, the antibacterial potency of all of the AB103-D derivatives was stronger than that seen for DJK-5, particularly in the case of the Gram-negative pathogens P. aeruginosa and K. pneumoniae. […]

SMILES | Peptide/Antibiotic Concentration where at least 80% of biofilm growth was inhibited [1] [µg/mL] | Efficacy in porcine skin infection [2] | Cytotoxicity (LDH) [3] | Proportion of dead bacteria within the biofilm [4] | Residual plaque biovolume [4] | IC50 [5] [µM] | IC50 (MRSA planktonic cells) [nM] | MIC (Klebsiella pneumoniae) [µg/mL]
CC[C@@H](C)[C@@H](NC(=O)[C@@H](C)NC(=O)[C@@H](CCCNC(=N)N)NC(=O)[C@@H](Cc1c[nH]c2ccccc12)NC(=O)[C@@H](CCC(N)=O)NC(=O)[C@H](NC(=O)[C@@H](CCCNC(=N)N)NC(=O)[C@H](NC(=O)[C@H](NC(=O)[C@@H](CCCNC(=N)N)NC(=O)[C@H](NC(=O)[C@H](N)CCCNC(=N)N)C(C)C)C(C)C)[C@H](C)CC)C(C)C)C(N)=O [AB103-D, rvrvirvqwrai-NH2] (H-[dR][dV][dR][dV][dI][dR][dV][dQ][dW][dR][dA][dI]-NH2) | 1 | worked as well or better than ciprofloxacin, mupirocin (for MRSA) | low toxicity | more effective than DJK5 | superior than DJK5 | 16 | 1960 | 0.8 (≈ 0.516 µM)
CC[C@@H](C)[C@@H](NC(=O)[C@@H](C)NC(=O)[C@@H](CCCNC(=N)N)NC(=O)[C@@H](Cc1c[nH]c2ccccc12)NC(=O)[C@@H](CCC(N)=O)NC(=O)[C@H](N)C(C)C)C(=O)N[C@H](CCCNC(=N)N)C(=O)N[C@@H](C(=O)N[C@H](CCCNC(=N)N)C(=O)N[C@@H](C(=O)N[C@@H](C(=O)N[C@H](CCCNC(=N)N)C(N)=O)[C@H](C)CC)C(C)C)C(C)C [DJK5, vqwrairvrvir-NH2] (H-[dV][dQ][dW][dR][dA][dI][dR][dV][dR][dV][dI][dR]-NH2) | 2 |  |  |  |  |  |  | 3 (≈ 1.93 µM)
